This is an account of results in ChEMBL document CHEMBL3751727, “One-pot green synthesis of 1,3,5-triarylpentane-1,5-dione and triarylmethane derivatives as a new class of tyrosinase inhibitors” (Bioorg Med Chem Lett, 2016).

Assay [1] deals with T1, Tyrosinase (Agaricus bisporus) (UniProt O42713).
T1 sequence (whole entry): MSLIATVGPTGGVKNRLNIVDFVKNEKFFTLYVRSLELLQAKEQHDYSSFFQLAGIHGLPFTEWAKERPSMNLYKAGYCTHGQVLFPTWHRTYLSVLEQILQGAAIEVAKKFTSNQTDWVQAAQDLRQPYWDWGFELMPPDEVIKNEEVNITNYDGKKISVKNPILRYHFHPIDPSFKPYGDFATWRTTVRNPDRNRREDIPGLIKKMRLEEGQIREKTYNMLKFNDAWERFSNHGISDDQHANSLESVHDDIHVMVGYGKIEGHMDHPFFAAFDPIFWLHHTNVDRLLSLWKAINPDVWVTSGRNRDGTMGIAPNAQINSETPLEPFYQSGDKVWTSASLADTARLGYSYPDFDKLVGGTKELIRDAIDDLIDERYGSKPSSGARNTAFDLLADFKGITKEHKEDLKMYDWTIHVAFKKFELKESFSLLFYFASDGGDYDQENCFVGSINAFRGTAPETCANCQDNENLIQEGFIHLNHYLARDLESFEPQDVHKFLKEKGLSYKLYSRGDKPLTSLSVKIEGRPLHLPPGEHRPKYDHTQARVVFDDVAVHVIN
The experiment in a line: Ratio of kojic acid IC50 to compound IC50 for mushroom tyrosinase.

Assay [2] deals with T2, Tyrosinase (Agaricus bisporus, UniProt O42713).
T2 sequence (O42713 whole entry): T1 sequence (whole entry)
Description: Inhibition of mushroom tyrosinase using L-tyrosine as substrate after 20 mins by spectrophotometric method

For `O=C1CC(c2ccc(O)cc2O)Oc2ccccc21` (stereo unspecified), the Ratio IC50 in assay [1] turned out to be 30. The compound further gave an IC50 in assay [2] of 970 nM.

`O=C(/C=C/c1ccc(O)cc1O)c1ccccc1O`: in assay [1], the Ratio IC50 came to 30. Also, the IC50 in assay [2] worked out at 29 nM.

`CC(=O)c1c(O)ccc(C(c2ccc(O)cc2O)c2ccc(O)c(C(C)=O)c2O)c1O` had an IC50 in assay [2] of 16200 nM.

In the case of `O=C1CC(c2ccc(O)cc2O)Oc2cccc(O)c21` (stereo unspecified), in assay [2], 1960 nM corresponded to half-maximal inhibition (IC50).

As to `CC(=O)c1ccccc1O`, in assay [2], the IC50 is over 300000 nM.

Compound `O=Cc1ccc(O)cc1O` yielded an IC50 in assay [2] of over 200000 nM.

The compound `CC(=O)c1c(O)cccc1O` gave a concentration for half-maximal inhibition (IC50) in assay [2] of over 300000 nM.

`O=C(CC(CC(=O)c1ccccc1O)c1ccc(O)cc1O)c1ccccc1O` came in with an IC50 in assay [2] of 1670 nM.

Turning to `O=c1cc(-c2ccc(O)cc2O)oc2cccc(O)c12`, inhibition in assay [2] was half-maximal at 2720 nM (IC50).
